Laboratory results reported in BindingDB's records for doi:10.1124/jpet.102.047092 (Case Western Reserve University, 2003).

What was measured:
[1] = target: Kappa-type opioid receptor (Cavia porcellus, UniProt P41144)
[2] = target: 5-hydroxytryptamine receptor 5A (Homo sapiens, UniProt P47898)
[3] = target: 5-hydroxytryptamine receptor 1D (Homo sapiens, UniProt P28221)
Vasopressin V1b receptor = target: T1, Vasopressin V1b receptor (Homo sapiens, UniProt P47901)
T1 sequence (P47901 whole entry): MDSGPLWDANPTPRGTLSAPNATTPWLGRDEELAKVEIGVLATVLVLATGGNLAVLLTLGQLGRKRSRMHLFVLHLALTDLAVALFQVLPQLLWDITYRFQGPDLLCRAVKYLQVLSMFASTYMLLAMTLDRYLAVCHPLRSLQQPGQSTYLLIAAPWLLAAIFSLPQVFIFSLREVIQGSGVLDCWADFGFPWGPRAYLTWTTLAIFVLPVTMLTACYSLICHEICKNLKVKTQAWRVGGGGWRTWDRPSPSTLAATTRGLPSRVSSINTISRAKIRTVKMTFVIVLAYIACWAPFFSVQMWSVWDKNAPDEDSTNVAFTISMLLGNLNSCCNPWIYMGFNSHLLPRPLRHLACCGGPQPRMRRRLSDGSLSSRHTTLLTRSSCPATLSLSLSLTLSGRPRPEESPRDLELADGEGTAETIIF

[4] = target: T2, Muscarinic acetylcholine receptor M2 (Homo sapiens, UniProt P08172)
T2 sequence (P08172 whole entry): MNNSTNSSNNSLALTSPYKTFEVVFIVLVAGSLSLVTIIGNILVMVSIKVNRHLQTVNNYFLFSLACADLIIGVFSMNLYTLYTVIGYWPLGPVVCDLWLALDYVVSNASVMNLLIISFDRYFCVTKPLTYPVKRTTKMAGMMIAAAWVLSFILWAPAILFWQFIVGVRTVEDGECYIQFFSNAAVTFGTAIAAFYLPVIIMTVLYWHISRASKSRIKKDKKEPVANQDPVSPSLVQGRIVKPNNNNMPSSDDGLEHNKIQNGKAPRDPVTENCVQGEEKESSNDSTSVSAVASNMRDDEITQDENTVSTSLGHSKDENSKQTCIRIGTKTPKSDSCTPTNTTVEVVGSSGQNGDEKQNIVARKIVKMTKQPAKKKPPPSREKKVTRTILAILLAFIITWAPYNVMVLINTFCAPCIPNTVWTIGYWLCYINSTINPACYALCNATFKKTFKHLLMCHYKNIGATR

Vasopressin V2 receptor = Vasopressin V2 receptor (Homo sapiens, UniProt P30518)
Sequence of Vasopressin V2 receptor (P30518 whole entry): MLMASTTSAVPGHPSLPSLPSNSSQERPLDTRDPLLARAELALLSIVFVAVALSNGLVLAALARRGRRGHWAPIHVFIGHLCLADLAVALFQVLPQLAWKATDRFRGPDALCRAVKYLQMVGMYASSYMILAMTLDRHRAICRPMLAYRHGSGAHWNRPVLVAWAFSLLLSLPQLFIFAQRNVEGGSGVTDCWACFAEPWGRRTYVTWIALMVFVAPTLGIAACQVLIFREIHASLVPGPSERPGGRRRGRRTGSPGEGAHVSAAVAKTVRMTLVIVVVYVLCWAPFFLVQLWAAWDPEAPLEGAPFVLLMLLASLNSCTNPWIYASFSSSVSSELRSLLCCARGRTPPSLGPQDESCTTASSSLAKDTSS

[5] = target: T3, 5-hydroxytryptamine receptor 1A (Homo sapiens, UniProt P08908)
T3 sequence (P08908 whole entry): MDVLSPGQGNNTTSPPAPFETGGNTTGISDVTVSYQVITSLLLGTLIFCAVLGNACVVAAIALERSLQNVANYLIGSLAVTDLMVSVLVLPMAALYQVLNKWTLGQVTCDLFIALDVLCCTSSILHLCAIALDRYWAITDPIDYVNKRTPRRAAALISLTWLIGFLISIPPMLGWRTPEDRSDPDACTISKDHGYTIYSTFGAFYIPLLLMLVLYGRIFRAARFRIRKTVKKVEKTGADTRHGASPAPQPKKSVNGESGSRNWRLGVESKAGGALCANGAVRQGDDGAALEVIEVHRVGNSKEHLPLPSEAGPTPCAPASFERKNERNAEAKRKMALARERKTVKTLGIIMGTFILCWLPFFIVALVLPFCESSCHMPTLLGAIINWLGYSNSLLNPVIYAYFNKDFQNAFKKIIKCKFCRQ

Histamine H1 receptor = Histamine H1 receptor (Rattus norvegicus, UniProt P31390)
Sequence of Histamine H1 receptor (P31390 whole entry): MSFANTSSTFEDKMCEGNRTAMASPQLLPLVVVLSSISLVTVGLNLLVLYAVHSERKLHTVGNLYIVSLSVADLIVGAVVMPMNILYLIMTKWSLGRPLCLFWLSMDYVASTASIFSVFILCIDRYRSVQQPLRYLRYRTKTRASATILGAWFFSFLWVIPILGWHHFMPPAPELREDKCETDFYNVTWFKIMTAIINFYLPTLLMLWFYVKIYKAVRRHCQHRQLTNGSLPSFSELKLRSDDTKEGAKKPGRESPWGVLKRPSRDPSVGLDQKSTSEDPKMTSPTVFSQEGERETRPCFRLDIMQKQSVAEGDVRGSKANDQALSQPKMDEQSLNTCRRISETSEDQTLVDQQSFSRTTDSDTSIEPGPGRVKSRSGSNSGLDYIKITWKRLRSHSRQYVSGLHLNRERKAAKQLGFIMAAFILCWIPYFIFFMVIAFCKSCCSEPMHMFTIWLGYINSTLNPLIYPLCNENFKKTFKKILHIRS

[6] = target: Beta-2 adrenergic receptor (Rattus norvegicus, UniProt P10608)
Sequence of Beta-2 adrenergic receptor (P10608 whole entry): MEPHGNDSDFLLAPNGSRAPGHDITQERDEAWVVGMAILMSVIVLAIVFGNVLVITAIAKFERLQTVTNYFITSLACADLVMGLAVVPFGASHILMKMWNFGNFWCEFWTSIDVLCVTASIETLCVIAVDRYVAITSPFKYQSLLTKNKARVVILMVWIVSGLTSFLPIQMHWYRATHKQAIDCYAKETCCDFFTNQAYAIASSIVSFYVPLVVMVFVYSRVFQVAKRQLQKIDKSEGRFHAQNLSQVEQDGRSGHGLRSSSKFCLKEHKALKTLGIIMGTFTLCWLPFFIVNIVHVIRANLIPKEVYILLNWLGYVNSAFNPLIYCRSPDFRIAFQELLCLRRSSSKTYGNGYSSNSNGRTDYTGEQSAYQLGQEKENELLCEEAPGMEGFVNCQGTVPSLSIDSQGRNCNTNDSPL

[7] = target: Sodium-dependent serotonin transporter (Homo sapiens, UniProt P31645)
Sequence of Sodium-dependent serotonin transporter (P31645 whole entry): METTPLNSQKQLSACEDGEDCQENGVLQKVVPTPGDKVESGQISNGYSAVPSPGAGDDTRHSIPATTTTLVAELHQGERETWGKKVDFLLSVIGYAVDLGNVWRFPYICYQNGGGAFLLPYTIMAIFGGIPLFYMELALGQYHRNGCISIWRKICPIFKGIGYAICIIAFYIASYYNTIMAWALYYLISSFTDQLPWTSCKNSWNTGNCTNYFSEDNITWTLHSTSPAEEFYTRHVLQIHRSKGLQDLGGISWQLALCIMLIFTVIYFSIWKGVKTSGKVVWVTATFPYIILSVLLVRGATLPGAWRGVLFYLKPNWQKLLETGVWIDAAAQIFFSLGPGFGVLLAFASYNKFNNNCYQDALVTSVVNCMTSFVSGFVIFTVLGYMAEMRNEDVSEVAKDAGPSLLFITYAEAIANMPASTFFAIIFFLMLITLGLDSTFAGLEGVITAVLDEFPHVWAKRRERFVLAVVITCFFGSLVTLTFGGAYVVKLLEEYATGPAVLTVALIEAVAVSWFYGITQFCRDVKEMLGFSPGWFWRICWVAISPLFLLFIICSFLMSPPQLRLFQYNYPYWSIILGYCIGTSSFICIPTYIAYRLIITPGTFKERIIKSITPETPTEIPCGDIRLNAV

Oxytocin receptor = target: T4, Oxytocin receptor (Homo sapiens, UniProt P30559)
T4 sequence (P30559 whole entry): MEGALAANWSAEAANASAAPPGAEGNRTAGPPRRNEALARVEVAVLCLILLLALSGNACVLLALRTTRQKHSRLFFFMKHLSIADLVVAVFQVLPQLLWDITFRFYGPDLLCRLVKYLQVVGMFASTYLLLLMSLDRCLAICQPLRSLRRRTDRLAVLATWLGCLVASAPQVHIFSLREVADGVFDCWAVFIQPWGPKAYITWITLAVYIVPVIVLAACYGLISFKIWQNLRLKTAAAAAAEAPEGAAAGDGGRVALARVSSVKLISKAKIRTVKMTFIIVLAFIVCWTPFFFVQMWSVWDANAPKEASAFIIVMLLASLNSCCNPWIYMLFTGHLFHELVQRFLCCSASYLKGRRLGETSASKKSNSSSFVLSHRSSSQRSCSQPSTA

Histamine H2 receptor = Histamine H2 receptor (Homo sapiens, UniProt P25021)
Sequence of Histamine H2 receptor (P25021 whole entry): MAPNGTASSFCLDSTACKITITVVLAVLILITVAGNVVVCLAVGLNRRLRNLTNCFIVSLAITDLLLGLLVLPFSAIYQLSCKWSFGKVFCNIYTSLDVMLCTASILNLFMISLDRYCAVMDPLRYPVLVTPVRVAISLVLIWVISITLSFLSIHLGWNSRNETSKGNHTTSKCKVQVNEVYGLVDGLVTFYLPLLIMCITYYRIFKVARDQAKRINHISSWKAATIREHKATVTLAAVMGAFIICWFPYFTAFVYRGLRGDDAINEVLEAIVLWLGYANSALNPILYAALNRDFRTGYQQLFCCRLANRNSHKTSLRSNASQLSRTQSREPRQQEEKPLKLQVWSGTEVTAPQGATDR

[8] = target: Beta-1 adrenergic receptor (Rattus norvegicus, UniProt P18090)
Sequence of Beta-1 adrenergic receptor (P18090 whole entry): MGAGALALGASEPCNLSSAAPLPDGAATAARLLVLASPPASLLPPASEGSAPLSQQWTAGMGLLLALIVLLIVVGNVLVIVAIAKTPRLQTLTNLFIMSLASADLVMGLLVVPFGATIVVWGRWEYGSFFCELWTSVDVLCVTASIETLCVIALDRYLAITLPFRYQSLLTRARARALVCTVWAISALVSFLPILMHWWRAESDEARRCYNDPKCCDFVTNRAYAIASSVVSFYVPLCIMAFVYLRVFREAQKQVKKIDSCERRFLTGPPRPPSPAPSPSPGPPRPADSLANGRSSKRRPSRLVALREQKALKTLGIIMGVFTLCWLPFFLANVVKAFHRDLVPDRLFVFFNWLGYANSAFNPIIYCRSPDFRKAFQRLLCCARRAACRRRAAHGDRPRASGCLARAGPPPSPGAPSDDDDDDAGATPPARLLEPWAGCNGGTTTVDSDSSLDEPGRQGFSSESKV

[9] = target: Neuronal acetylcholine receptor subunit alpha-4 (Rattus norvegicus, UniProt P09483)
Sequence of Neuronal acetylcholine receptor subunit alpha-4 (Rattus norvegicus, UniProt P09483) (P09483 whole entry): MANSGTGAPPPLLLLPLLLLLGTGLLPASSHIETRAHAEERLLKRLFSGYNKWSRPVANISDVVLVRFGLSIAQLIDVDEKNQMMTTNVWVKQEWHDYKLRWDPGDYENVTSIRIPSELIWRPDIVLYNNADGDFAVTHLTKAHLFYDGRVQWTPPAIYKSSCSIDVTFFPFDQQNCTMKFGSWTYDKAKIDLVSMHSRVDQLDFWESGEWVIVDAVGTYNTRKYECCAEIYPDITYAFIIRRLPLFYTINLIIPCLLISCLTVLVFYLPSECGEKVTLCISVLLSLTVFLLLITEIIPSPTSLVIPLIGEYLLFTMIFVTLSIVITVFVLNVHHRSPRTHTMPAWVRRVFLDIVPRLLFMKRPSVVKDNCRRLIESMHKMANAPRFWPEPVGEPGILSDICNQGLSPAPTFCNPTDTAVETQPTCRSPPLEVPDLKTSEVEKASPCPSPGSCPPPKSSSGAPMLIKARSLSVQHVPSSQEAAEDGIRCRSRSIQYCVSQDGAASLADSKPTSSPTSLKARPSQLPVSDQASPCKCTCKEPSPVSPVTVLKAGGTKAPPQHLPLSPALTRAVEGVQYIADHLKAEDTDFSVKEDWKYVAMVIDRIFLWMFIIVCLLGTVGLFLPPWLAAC

[10] = target: Neuronal acetylcholine receptor subunit alpha-4 (Homo sapiens, UniProt P43681)
Sequence of Neuronal acetylcholine receptor subunit alpha-4 (Homo sapiens, UniProt P43681) (P43681 whole entry): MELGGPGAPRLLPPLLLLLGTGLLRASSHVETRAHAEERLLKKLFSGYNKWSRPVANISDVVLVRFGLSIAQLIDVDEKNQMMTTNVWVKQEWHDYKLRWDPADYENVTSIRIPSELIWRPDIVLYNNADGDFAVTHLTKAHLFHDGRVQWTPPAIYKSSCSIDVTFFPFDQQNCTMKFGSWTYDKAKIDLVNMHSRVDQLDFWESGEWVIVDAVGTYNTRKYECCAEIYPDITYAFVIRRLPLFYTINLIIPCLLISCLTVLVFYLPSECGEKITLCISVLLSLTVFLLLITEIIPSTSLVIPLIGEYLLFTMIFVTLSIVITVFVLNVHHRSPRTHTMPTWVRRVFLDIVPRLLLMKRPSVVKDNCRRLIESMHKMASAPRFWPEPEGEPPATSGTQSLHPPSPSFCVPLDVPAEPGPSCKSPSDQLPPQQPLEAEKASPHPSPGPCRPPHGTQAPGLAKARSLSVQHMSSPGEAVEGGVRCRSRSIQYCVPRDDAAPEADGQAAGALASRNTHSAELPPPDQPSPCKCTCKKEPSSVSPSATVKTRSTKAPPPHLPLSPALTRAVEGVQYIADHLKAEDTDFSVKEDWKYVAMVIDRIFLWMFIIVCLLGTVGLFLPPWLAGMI

Cannabinoid receptor 1 = Cannabinoid receptor 1 (Rattus norvegicus, UniProt P20272)
Nischarin = Nischarin (Rattus norvegicus, UniProt Q4G017)

Measured: Ki

Sequence of Kappa-type opioid receptor (P41144 whole entry): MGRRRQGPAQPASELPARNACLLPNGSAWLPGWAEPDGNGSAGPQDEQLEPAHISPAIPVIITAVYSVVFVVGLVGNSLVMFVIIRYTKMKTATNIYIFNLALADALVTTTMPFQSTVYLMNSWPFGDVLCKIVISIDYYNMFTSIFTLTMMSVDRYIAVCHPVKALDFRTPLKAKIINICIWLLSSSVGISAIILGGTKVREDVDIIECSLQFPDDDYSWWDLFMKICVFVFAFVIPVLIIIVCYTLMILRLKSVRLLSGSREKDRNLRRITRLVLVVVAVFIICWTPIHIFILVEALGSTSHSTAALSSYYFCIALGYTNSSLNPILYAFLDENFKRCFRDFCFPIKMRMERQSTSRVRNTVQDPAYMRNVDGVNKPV
Sequence of 5-hydroxytryptamine receptor 5A (P47898 whole entry): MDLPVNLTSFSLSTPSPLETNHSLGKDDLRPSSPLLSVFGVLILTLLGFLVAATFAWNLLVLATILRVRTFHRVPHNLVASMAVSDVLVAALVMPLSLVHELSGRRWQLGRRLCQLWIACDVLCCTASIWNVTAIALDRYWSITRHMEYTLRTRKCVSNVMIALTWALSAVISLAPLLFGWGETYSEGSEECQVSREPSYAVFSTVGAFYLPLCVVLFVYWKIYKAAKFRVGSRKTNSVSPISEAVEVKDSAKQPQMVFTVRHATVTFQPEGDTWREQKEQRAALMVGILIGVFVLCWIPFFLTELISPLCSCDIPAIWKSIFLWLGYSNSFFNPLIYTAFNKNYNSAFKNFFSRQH

N[C@@H](CCS(=O)(=O)O)C(=O)O (racemic)
not listed: Histamine H2 receptor | [8] | [9] | [10] | Cannabinoid receptor 1 | Nischarin
> 10 µM: all other assays above

N[C@@H](CCS)C(=O)O (racemic) [CAS_778]
not listed: Nischarin
> 10 µM: all other assays above

NC(CS(=O)O)C(=O)O (stereo not given) [CAS_109]
> 10 µM: all assays above

NC(CSSCC(N)C(=O)O)C(=O)O (stereo not given) [CAS_595]
> 10 µM: all assays above

N[C@@H](CS)C(=O)O [CAS_5862]
> 10 µM: all assays above

CSCC[C@@H](N)C(=O)O [CAS_6137]
> 10 µM: all assays above

N[C@@H]1CCSC1=O [D-homocysteine thiolactone]
not listed: [3] | Vasopressin V1b receptor | Vasopressin V2 receptor | Histamine H1 receptor | Oxytocin receptor
> 10 µM: all other assays above

N[C@@H](CCS(=O)O)C(=O)O [L-homocysteine sulfinic acid]
not listed: [7]
> 10 µM: all other assays above

N[C@H]1CCSC1=O [NSC_134505]
not listed: [3] | Vasopressin V1b receptor | Vasopressin V2 receptor | Histamine H1 receptor | Oxytocin receptor
> 10 µM: all other assays above
